According to ChEMBL document CHEMBL1201862, “PubChem BioAssay data set” (2004):
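Cells were grown in 96-well plates and exposed to each compound for 48 hours at five concentrations; endpoints were interpolated linearly between bracketing concentrations, or set to the highest concentration if not reached. GI50 is the concentration that inhibits growth by half.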 Activity calls are given as the source filed them. No stated cut-off is given here; in the data, active = GI50 up to about 1.1 µM and inactive = higher.

How the values were obtained:
Experiment in all cases: growth of human tumour cells (NCI), 48 h
SW-620 = test system: SW-620
HCT-116 = test system: HCT-116
RXF 393 = test system: RXF 393
PC-3 = test system: PC-3
UACC-257 = test system: UACC-257
LOX IMVI = test system: LOX IMVI
A549 = test system: A549
K562 = test system: K562
HCT-15 = test system: HCT-15
TK-10 = test system: TK-10
SN12C = test system: SN12C
IGROV-1 = test system: IGROV-1
NCI-H522 = test system: NCI-H522
M14 = test system: M14
NCI/ADR-RES = test system: NCI/ADR-RES
OVCAR-3 = test system: OVCAR-3
HL-60 = test system: HL-60
786-0 = test system: 786-0
U-251 = test system: U-251
NCI-H23 = test system: NCI-H23
MDA-MB-435 = test system: MDA-MB-435
HT-29 = test system: HT-29
RPMI-8226 = test system: RPMI-8226
ACHN = test system: ACHN
SR = test system: SR
CAKI-1 = test system: CAKI-1
T47D = test system: T47D
DU-145 = test system: DU-145
SK-MEL-2 = test system: SK-MEL-2
OVCAR-4 = test system: OVCAR-4
SK-MEL-5 = test system: SK-MEL-5
Malme-3M = test system: Malme-3M
NCI-H226 = test system: NCI-H226
SF-295 = test system: SF-295
Hs-578T = test system: Hs-578T
A498 = test system: A498
SK-OV-3 = test system: SK-OV-3
MDA-MB-231 = test system: MDA-MB-231
UACC-62 = test system: UACC-62
SF-268 = test system: SF-268
HOP-92 = test system: HOP-92
SF-539 = test system: SF-539
OVCAR-8 = test system: OVCAR-8
CCRF-CEM = test system: CCRF-CEM
HOP-62 = test system: HOP-62
COLO 205 = test system: COLO 205
OVCAR-5 = test system: OVCAR-5
MDA-N = test system: MDA-N
SNB-75 = test system: SNB-75
MCF7 = test system: MCF7
EKVX = test system: EKVX
HCC 2998 = test system: HCC 2998
SK-MEL-28 = test system: SK-MEL-28
SNB-19 = test system: SNB-19
UO-31 = test system: UO-31
MOLT-4 = test system: MOLT-4
KM12 = test system: KM12
NCI-H460 = test system: NCI-H460
BT-549 = test system: BT-549

Nc1ncnc2c1ncn2C1OC(CO)=CC1O (centres undefined)
GI50 (SW-620): > 37.5 µM (inactive)
GI50 (HCT-116): > 37.5 µM (inactive)
GI50 (RXF 393): > 37.5 µM (inactive)
GI50 (PC-3): > 37.5 µM (inactive)
GI50 (UACC-257): > 37.5 µM (inactive)
GI50 (LOX IMVI): > 37.5 µM (inactive)
GI50 (A549): > 37.5 µM (inactive)
GI50 (K562): > 37.5 µM (inactive)
GI50 (HCT-15): > 37.5 µM
GI50 (TK-10): > 37.5 µM (inactive)
GI50 (SN12C): > 37.5 µM (inactive)
GI50 (IGROV-1): > 37.5 µM (inactive)
GI50 (NCI-H522): > 37.5 µM (inactive)
GI50 (M14): > 37.5 µM (inactive)
GI50 (NCI/ADR-RES): > 37.5 µM (inactive)
GI50 (OVCAR-3): > 37.5 µM (inactive)
GI50 (HL-60): > 37.5 µM (inactive)
GI50 (786-0): > 37.5 µM (inactive)
GI50 (U-251): > 37.5 µM (inactive)
GI50 (NCI-H23): > 37.5 µM (inactive)
GI50 (MDA-MB-435): > 37.5 µM (inactive)
GI50 (HT-29): > 37.5 µM (inactive)
GI50 (RPMI-8226): > 37.5 µM (inactive)
GI50 (ACHN): > 37.5 µM (inactive)
GI50 (SR): > 37.5 µM (inactive)
GI50 (CAKI-1): > 37.5 µM (inactive)
GI50 (T47D): > 37.5 µM (inactive)
GI50 (DU-145): > 37.5 µM (inactive)
GI50 (SK-MEL-2): > 37.5 µM (inactive)
GI50 (OVCAR-4): > 37.5 µM (inactive)
GI50 (SK-MEL-5): > 37.5 µM (inactive)
GI50 (Malme-3M): > 37.5 µM (inactive)
GI50 (NCI-H226): > 37.5 µM (inactive)
GI50 (SF-295): > 37.5 µM (inactive)
GI50 (Hs-578T): > 37.5 µM (inactive)
GI50 (A498): > 37.5 µM (inactive)
GI50 (SK-OV-3): > 37.5 µM (inactive)
GI50 (MDA-MB-231): > 37.5 µM (inactive)
GI50 (UACC-62): > 37.5 µM (inactive)
GI50 (SF-268): > 37.5 µM (inactive)
GI50 (HOP-92): > 37.5 µM (inactive)
GI50 (SF-539): > 37.5 µM (inactive)
GI50 (OVCAR-8): > 37.5 µM (inactive)
GI50 (CCRF-CEM): > 37.5 µM (inactive)
GI50 (HOP-62): > 37.5 µM (inactive)
GI50 (COLO 205): > 37.5 µM (inactive)
GI50 (OVCAR-5): > 37.5 µM (inactive)
GI50 (MDA-N): > 37.5 µM (inactive)
GI50 (SNB-75): > 37.5 µM (inactive)
GI50 (MCF7): > 37.5 µM (inactive)
GI50 (EKVX): > 37.5 µM (inactive)
GI50 (HCC 2998): > 37.5 µM (inactive)
GI50 (SK-MEL-28): > 37.5 µM (inactive)
GI50 (SNB-19): > 37.5 µM (inactive)
GI50 (UO-31): > 37.5 µM (inactive)
GI50 (MOLT-4): > 37.5 µM (inactive)
GI50 (KM12): > 37.5 µM (inactive)
GI50 (NCI-H460): > 37.5 µM (inactive)

Cc1cn(S(=O)(=O)c2ccccc2)c2c(OCc3ccccc3)cc(NC(=O)c3cc4cc([N+](=O)[O-])ccc4s3)cc12
GI50 (SW-620): > 100 µM (inactive)
GI50 (RXF 393): > 100 µM (inactive)
GI50 (LOX IMVI): > 100 µM (inactive)
GI50 (A549): > 100 µM (inactive)
GI50 (HCT-15): > 100 µM
GI50 (TK-10): > 100 µM (inactive)
GI50 (IGROV-1): > 100 µM (inactive)
GI50 (NCI-H522): > 100 µM (inactive)
GI50 (M14): 37.8 µM (inactive)
GI50 (NCI/ADR-RES): > 100 µM (inactive)
GI50 (HL-60): 91 µM (inactive)
GI50 (NCI-H23): > 100 µM (inactive)
GI50 (RPMI-8226): > 100 µM (inactive)
GI50 (ACHN): > 100 µM (inactive)
GI50 (CAKI-1): > 100 µM (inactive)
GI50 (DU-145): > 100 µM (inactive)
GI50 (OVCAR-4): > 100 µM (inactive)
GI50 (SK-MEL-5): > 100 µM (inactive)
GI50 (Malme-3M): 89.7 µM (inactive)
GI50 (SF-295): 58.7 µM (inactive)
GI50 (Hs-578T): > 100 µM (inactive)
GI50 (SK-OV-3): > 100 µM (inactive)
GI50 (MDA-MB-231): 49.1 µM (inactive)
GI50 (OVCAR-8): > 100 µM (inactive)
GI50 (CCRF-CEM): 38.9 µM (inactive)
GI50 (HOP-62): > 100 µM (inactive)
GI50 (COLO 205): > 100 µM (inactive)
GI50 (OVCAR-5): > 100 µM (inactive)
GI50 (BT-549): > 100 µM (inactive)
GI50 (SNB-75): 68.9 µM (inactive)
GI50 (EKVX): > 100 µM (inactive)
GI50 (HCC 2998): > 100 µM (inactive)
GI50 (SK-MEL-28): > 100 µM (inactive)
GI50 (UO-31): > 100 µM (inactive)
GI50 (MOLT-4): 59.6 µM (inactive)
GI50 (NCI-H460): > 100 µM (inactive)
